Source: patent US4088778A, “Method for the treatment of hypertension” (priority 1975, dated 1978)

Legend:
[1] = Subacute and chronic toxicities; assay type: in vivo; conditions: rats 100 to 1000 mg/Kg and beagles 100 mg/Kg daily, 3 or 6 months
Description: (B) Subacute and Chronic Toxicities:
TN and TA were separately administered to rats and beagles at daily doses of 100 to 1000 mg/Kg and 100 mg/Kg, respectively, continuously for 3 or 6 months.

[2] = Experiment on young SHR (rats of spontaneous hypertension); assay type: in vivo, rats (7-week-old female SHR); conditions: for dead rats within 6 weeks from the start of the administration: control 5 among 11; for dead rats within 2 weeks from the start of administration: judged pneumonia, control 3
Description: Experiments were conducted by using two classes of rats of spontaneous hypertension (hereinafter referred to as "SHR"; provided by Nippon Rat K.K.) differing in the age. In the first experiment, 9-month-old chronic […] SHR (hereinafter referred to as "old SHR"), and in the second experiment, 7-week-old SHR in which hypertension was advancing (hereinafter referred to as "young SHR") was used.
(B) Experiment on Young SHR:
72 of 7-week-old female SHR (having a body weight of 130 to 175 g) were divided into 9 cages, each consisting of 8 rats. Service water was given as drinking water to rats of two cages among these 9 cages, and these rats were compared with other rats which were given a 1% aqueous solution of sodium chloride as drinking water. In each of the […] cages of rats to which the sodium chloride solution was given, no agent was administered to 2 of 8 rats, 20 mg/Kg of TN was administered to another 2 rats, 100 mg/Kg of TN was administered to still another 2 rats, and 88 mg/Kg of TA was administered to the remaining 2 rats.
After 2 weeks' feeding with the sodium chloride solution, administration was conducted once a day. Within 2 weeks from the start of administration,3 rats in the Control (non-administered) group, one rat in the 20 mg/Kg TN administered group, 3 rats in the 100 mg/Kg TN administered group, 3 rats in the 88 mg/Kg TA administered group and 4 rats in the service water given group were dead. In view of the body weight decrease and the snivel secretion and from the results of autopsy, it was judged that each of them died of pneumonia. The rats that died prior to initiation of the administration were not taken in account in evaluating the experimental results.

[3] = Clinical Experiment II, double blind: blood pressure; assay type: in vivo, human patients; conditions: for Maximum Pressure, Average Value, all patients / Maximum Pressure, Average Value, patients of hypertension / Maximum Pressure, Average Value, no hypotensive agent in combination with TN / Maximum Pressure, Average Value, hypotensive agent administered in combination with TN: in mmHg (unit assumed)
Description: Results of the clinical experiment conducted according to the double blind method in a different hospital will now be described.
(§1) 75 patients of hypertension or arteriosclerosis having subjective symptoms were tested. Some of them suffered from complications such as ischemia heart disease and cerebral thrombosis. They are detailed in Table 11.
(§2) Two capsules were administered at one time, and the administration was conducted 3 times per day after eating. The duration of the continuous administration was 4 weeks. Combined use of drugs having the same functions as those of TN (vitamin E drugs, nicotinic acid, its derivatives and peripheral vasolidators) and minor tranquilizers was prohibited.
(a) Results of Blood Pressure Test: Variations of the blood pressure in all the patients and in the patients of hypertension alone are shown in Tables 12 and 13.
The change of the blood pressure in the patients of hypertension to whom a hypotensive agent was administrated in combination with TN is shown in Table 14, and the change of the blood pressure in the patients to whom no hypotensive agent was administrated in combination with TN is shown in Table 15.
In each of the foregoing Tables, N indicates the number of the patients, and S.D. denotes the standard deviation.

[4] = Clinical Experiment II: liver function test; assay type: in vivo, human patients; parameters: GOT, Average Value / GPT, Average Value / LDH, Average Value / ALP, Average Value: unit not given here
Description: as §1, §2

[5] = Clinical Experiment II: general improvement; assay type: in vivo, human patients
Description: as §1, §2
With respect to patients of hypertension alone, the general improvement was evaluated collectively based on subjective symptoms and clinical test data to obtain results shown in Table 23.

[6] = Clinical Experiment II: side effects; assay type: in vivo, human patients
Description: as §1, §2

[7] = conclusion of both clinical experiments

## Cc1c(C)c2c(c(C)c1OC(=O)c1cccnc1)CCC(C)(CCCC(C)CCCC(C)CCCC(C)C)O2 (racemic) [TN, dl-α-tocopheryl nicotinate]
[1]
  deaths: no deaths
  haematological, haemetobiological and histological surveys: no manifestation of the toxicity was observed
  inhibition of the body weight: inhibition of the body weight was not observed
[2]; 20 mg/kg TN, among 13 rats
  dead rats within 6 weeks from the start of the administration: 3 rats
[2]; 20 mg/kg TN
  dead rats within 2 weeks from the start of administration: one
[2]; 100 mg/kg TN, among 11 rats
  dead rats within 6 weeks from the start of the administration: 4 rats
[2]; 100 mg/kg TN
  dead rats within 2 weeks from the start of administration: 3 rats
[3]; Tables 12 to 15, hypertension alone significant at level lower than 5%
  hypotensive effect as compared with the P group: the hypotensive effect was attained in the TN administrated group as compared with the P group
[3]; after administration (200 mg TN 3 times per day, 4 weeks), N 35, S.D. ±23.65
  Maximum Pressure, Average Value, all patients: 141.40
[3]; after administration (4 weeks), N 22, S.D. ±13.08
  Minimum Pressure, Average Value, patients of hypertension: 87.45
[3]; after administration (4 weeks), N 22, S.D. ±20.69, P < 0.05
  Maximum Pressure, Average Value, patients of hypertension: 148.59
[3]; after administration (4 weeks), N 35, S.D. ±13.64
  Minimum Pressure, Average Value, all patients: 81.89
[3]; after administration, N 8, S.D. ±13.34
  Minimum Pressure, Average Value, no hypotensive agent in combination with TN: 87.50
[3]; after administration, N 8, S.D. ±19.95, P < 0.1
  Maximum Pressure, Average Value, no hypotensive agent in combination with TN: 146.13
[3]; after administration, N 14, S.D. ±13.44
  Minimum Pressure, Average Value, hypotensive agent administered in combination with TN: 87.43
[3]; after administration, N 14, S.D. ±21.71
  Maximum Pressure, Average Value, hypotensive agent administered in combination with TN: 150.00
[3]; before administration, N 8, S.D. ±16.40
  Minimum Pressure, Average Value, no hypotensive agent in combination with TN: 87.75
[3]; before administration, N 8, S.D. ±22.60
  Maximum Pressure, Average Value, no hypotensive agent in combination with TN: 161.50
[3]; before administration, N 14, S.D. ±10.75
  Minimum Pressure, Average Value, hypotensive agent administered in combination with TN: 89.71
[3]; before administration, N 14, S.D. ±17.29
  Maximum Pressure, Average Value, hypotensive agent administered in combination with TN: 159.29
[3]; before administration, N 22, S.D. ±12.74
  Minimum Pressure, Average Value, patients of hypertension: 89.00
[3]; before administration, N 22, S.D. ±18.88
  Maximum Pressure, Average Value, patients of hypertension: 160.09
[3]; before administration, N 38, S.D. ±14.78
  Minimum Pressure, Average Value, all patients: 81.37
[3]; before administration, N 38, S.D. ±25.14
  Maximum Pressure, Average Value, all patients: 144.63
[3]; [7]
  efficacy and safety conclusion: very effective and safe hypotensive agent
  hypotensive effect on patients of hypertension versus P group: higher in the TN administered group than in the P group
[3]; general conclusion
  effect durability: high effect durability
[4]; Table 16
  variation of GOT, GPT, LDH and ALP: the variation was within the normal region
[4]; after administration, N 29, S.D. ±9.51
  GOT, Average Value: 24.90
[4]; after administration, N 30, S.D. ±2.21
  ALP, Average Value: 7.21
[4]; after administration, N 30, S.D. ±13.40
  GPT, Average Value: 18.73
[4]; after administration, N 30, S.D. ±53.94
  LDH, Average Value: 245.03
[4]; before administration, N 34, S.D. ±2.36
  ALP, Average Value: 7.37
[4]; before administration, N 36, S.D. ±72.42
  LDH, Average Value: 251.28
[4]; before administration, N 37, S.D. ±14.92
  GOT, Average Value: 28.59
[4]; before administration, N 37, S.D. ±19.46
  GPT, Average Value: 22.73
[4]; versus P group
  tendency of reduction of GOT and GPT: greater in the TN administered group than in the P group
[5]; P group 52.94, P < 0.05
  General improvement: Improvement Ratio: 86.36%
[5]; conclusion of both clinical experiments, significance lower than 0.5%
  general improvement versus P group: significantly excellent over that in the P group at a level of significance lower than 0.5%
[5]; level of significance lower than 5%
  general improvement versus P group: excellent over that in the P group at a level of significance lower than 5%
[5]; number of patients, total 22
  General improvement: Not Changed: 3
  General improvement: Partial Improvement: 7
  General improvement: Remarkable Improvement: 4
  General improvement: Slight Improvement: 8
  General improvement: Worsened: 0
[6]; among 41 patients
  side effect: constipation: another patient complained of constipation
  side effect: light lack of appetite: one
  side effects in other patients: no side effect was observed
[6]; [7]
  side effects versus conventional hypotensive agents: much more reduced in TN than in conventional hypotensive agents
[6]; human, in vivo
  other various blood tests and the like: undesirable side effects: None of results of other various blood tests and the like were suggestive of undesirable, side effects
